From PMC8509773, “3-Pyridinylidene Derivatives of Chemically Modified Lupane and Ursane Triterpenes as Promising Anticancer Agents by Targeting Apoptosis” (International Journal of Molecular Sciences, 2021)

How the values were obtained:
Assay in all cases: NCI-60 SRB screening (one-dose and five-dose)
Assay type in all cases: cell-based, human
A498 = details: 48 h
Outline: (§1)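 Read-out is sulforhodamine B staining of cellular protein, giving percent growth relative to cultures not exposed to test agent. Exposure lasted 48 h at one compound concentration.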

BT-549 = details: 48 h
Outline: as §1

CAKI-1 = details: 48 h
Outline: (§2)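 Growth inhibition is scored with sulforhodamine B after 48 h of continuous compound exposure. An MG_MID averages each parameter over the whole cell panel, insensitive lines being counted at the top tested concentration.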

CCRF-CEM = details: 48 h
Outline: as §2

COLO 205 = details: 48 h
Outline: (§3)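 After a 48-h incubation with compound, cellular protein was stained with SRB and growth estimated by spectrophotometry relative to untreated controls.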

DU-145 = details: 48 h
Outline: as §2

EKVX = details: 48 h
Outline: as §3

HCC-2998 = details: 48 h
Outline: as §2

HCT-15 = details: 48 h
Outline: as §3

HL-60(TB) = details: 48 h
Outline: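 48-h single-concentration exposure; SRB protein dye end point; % growth vs untreated controls by absorbance.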

HOP-62 = details: 48 h
Outline: as §3

HOP-92 = details: 48 h
Outline: as §2

HT29 = details: 48 h
Outline: as §2

K-562 = details: 48 h
Outline: as §1

LOX IMVI = details: Homo sapiens, five dose 0.01–100 μM, 48 h
Outline: as §1

M14 = details: 48 h
Outline: as §1

MDA-MB-435 = details: 48 h
Outline: as §3

MDA-MB-468 = details: 48 h
Outline: as §3

MOLT-4 = details: 48 h
Outline: as §1

NCI-H226 = details: 48 h
Outline: as §3

NCI-H23 = details: 48 h
Outline: as §2

NCI-H322M = details: 48 h
Outline: as §1

NCI-H460 = details: 48 h
Outline: as §3

OVCAR-3 = details: 48 h
Outline: as §3

OVCAR-5 = details: 48 h
Outline: as §3

OVCAR-8 = details: 48 h
Outline: as §2

RPMI-8226 = details: 48 h
Outline: as §3

RXF 393 = details: 48 h
Outline: as §1

SF-268 = details: 48 h
Outline: as §1

SF-295 = details: 48 h
Outline: as §3

SK-MEL-28 = details: 48 h
Outline: as §2

SK-MEL-2 = details: 48 h
Outline: as §2

SK-MEL-5 = details: 48 h
Outline: as §3

SK-OV-3 = details: 48 h
Outline: as §3

SNB-19 = details: 48 h
Outline: as §3

SNB-75 = details: 48 h
Outline: as §2

SR = details: 48 h
Outline: as §1

TK-10 = details: 48 h
Outline: as §1

UO-31 = details: 48 h
Outline: as §3

[1] = Homo sapiens, five dose 0.01–100 μM

Structure (SMILES): COC(=O)[C@]12CC[C@@H](C(=O)/C=C/c3cccnc3)[C@@H]1[C@H]1CC[C@@H]3[C@@]4(C)C/C(=C\c5cccnc5)C(=O)C(C)(C)[C@@H]4CC[C@@]3(C)[C@]1(C)CC2 [Compound 7, methyl 2,30-bis-(3-pyridinylidene)-3,20-dioxo-lup-28-oate]
- Growth Percent (A498; A498, 10 μM): −91.17%
- GI50 (A498; Homo sapiens, A498, five dose 0.01–100 μM): 180 nM
- Growth Percent (BT-549; BT-549, 10 μM): −92.12%
- GI50 (BT-549; Homo sapiens, BT-549, five dose 0.01–100 μM): 220 nM
- Growth Percent (CAKI-1; CAKI-1, 10 μM): −78.75%
- GI50 (CAKI-1; Homo sapiens, CAKI-1, five dose 0.01–100 μM): 1090 nM
- Growth Percent (CCRF-CEM; 10 μM): 0.95%
- GI50 (CCRF-CEM; [1]): 310 nM
- Growth Percent (COLO 205; COLO 205, 10 μM): −45.07%
- GI50 (COLO 205; Homo sapiens, COLO 205, five dose 0.01–100 μM): 360 nM
- Growth Percent (DU-145; DU-145, 10 μM): −67.84%
- GI50 (DU-145; Homo sapiens, DU-145, five dose 0.01–100 μM): 1530 nM
- Growth Percent (EKVX; 10 μM): −76.32%
- GI50 (EKVX; [1]): 410 nM
- Growth Percent (HCC-2998; HCC-2998, 10 μM): −55.45%
- GI50 (HCC-2998; Homo sapiens, HCC-2998, five dose 0.01–100 μM): 670 nM
- Growth Percent (HCT-15; HCT-15, 10 μM): −46.22%
- GI50 (HCT-15; Homo sapiens, HCT-15, five dose 0.01–100 μM): 240 nM
- Growth Percent (HL-60(TB); 10 μM): −30.17%
- GI50 (HL-60(TB); [1]): 250 nM
- Growth Percent (HOP-62; HOP-62, 10 μM): −85.57%
- GI50 (HOP-62; Homo sapiens, HOP-62, five dose 0.01–100 μM): 690 nM
- Growth Percent (HOP-92; HOP-92, 10 μM): −79.86%
- GI50 (HOP-92; Homo sapiens, HOP-92, five dose 0.01–100 μM): 530 nM
- Growth Percent (HT29; HT29, 10 μM): −45.47%
- GI50 (HT29; Homo sapiens, HT-29, HT29, five dose 0.01–100 μM): 320 nM
- GI50 (K-562; Homo sapiens, K562, K-562, five dose 0.01–100 μM): 330 nM
- Growth Percent (K-562; K-562, 10 μM): −21.61%
- GI50 (LOX IMVI): 210 nM
- GI50 (M14; Homo sapiens, M14, five dose 0.01–100 μM): 310 nM
- Growth Percent (M14; M14, 10 μM): −80.31%
- GI50 (MDA-MB-435; Homo sapiens, MDA-MB-435, MDA-B-435, five dose 0.01–100 μM): 200 nM
- Growth Percent (MDA-MB-435; MDA-MB-435, 10 μM): −69.71%
- GI50 (MDA-MB-468; Homo sapiens, MDA-MB-468, five dose 0.01–100 μM): 270 nM
- Growth Percent (MDA-MB-468; MDA-MB-468, 10 μM): −76.12%
- GI50 (MOLT-4; Homo sapiens, MOLT-4, five dose 0.01–100 μM): 300 nM
- Growth Percent (MOLT-4; MOLT-4, 10 μM): −31.34%
- GI50 (NCI-H226; Homo sapiens, NCI-H226, five dose 0.01–100 μM): 1480 nM
- Growth Percent (NCI-H226; NCI-H226, 10 μM): −44.44%
- GI50 (NCI-H23; Homo sapiens, NCI-H23, five dose 0.01–100 μM): 350 nM
- Growth Percent (NCI-H23; NCI-H23, 10 μM): −48.31%
- Growth Percent (NCI-H322M; 10 μM): −80.71%
- GI50 (NCI-H322M; [1]): 1480 nM
- GI50 (NCI-H460; Homo sapiens, NCI-H460, five dose 0.01–100 μM): 830 nM
- Growth Percent (NCI-H460; NCI-H460, 10 μM): −78.43%
- GI50 (OVCAR-3; Homo sapiens, OVCAR-3, five dose 0.01–100 μM): 270 nM
- Growth Percent (OVCAR-3; OVCAR-3, 10 μM): −93.24%
- GI50 (OVCAR-5; Homo sapiens, OVCAR-5, five dose 0.01–100 μM): 410 nM
- Growth Percent (OVCAR-5; OVCAR-5, 10 μM): −62.74%
- GI50 (OVCAR-8; Homo sapiens, OVCAR-8, five dose 0.01–100 μM): 340 nM
- Growth Percent (OVCAR-8; OVCAR-8, 10 μM): −34.25%
- GI50 (RPMI-8226; Homo sapiens, RPMI-8226, five dose 0.01–100 μM): 240 nM
- Growth Percent (RPMI-8226; RPMI-8226, 10 μM): −28.73%
- GI50 (RXF 393; Homo sapiens, RXF 393, five dose 0.01–100 μM): 270 nM
- Growth Percent (RXF 393; RXF 393, 10 μM): −93.62%
- GI50 (SF-268; Homo sapiens, SF-268, five dose 0.01–100 μM): 1010 nM
- Growth Percent (SF-268; SF-268, 10 μM): −80.80%
- GI50 (SF-295; Homo sapiens, SF-295, five dose 0.01–100 μM): 440 nM
- Growth Percent (SF-295; SF-295, 10 μM): −98.52%
- GI50 (SK-MEL-28; Homo sapiens, SK-MEL-28, five dose 0.01–100 μM): 240 nM
- Growth Percent (SK-MEL-28; SK-MEL-28, 10 μM): −96.28%
- GI50 (SK-MEL-2; Homo sapiens, SK-MEL-2, five dose 0.01–100 μM): 470 nM
- Growth Percent (SK-MEL-2; SK-MEL-2, 10 μM): -61.15%
- GI50 (SK-MEL-5; Homo sapiens, SK-MEL-5, five dose 0.01–100 μM): 460 nM
- Growth Percent (SK-MEL-5; SK-MEL-5, 10 μM): −98.85%
- GI50 (SK-OV-3; Homo sapiens, SK-OV-3, five dose 0.01–100 μM): 1430 nM
- Growth Percent (SK-OV-3; SK-OV-3, 10 μM): −23.10%
- GI50 (SNB-19; Homo sapiens, SNB-19, five dose 0.01–100 μM): 690 nM
- Growth Percent (SNB-19; SNB-19, 10 μM): −87.62%
- GI50 (SNB-75; Homo sapiens, SNB-75, five dose 0.01–100 μM): 1350 nM
- Growth Percent (SNB-75; SNB-75, 10 μM): −98.68%
- Growth Percent (SR; 10 μM): −14.07%
- GI50 (SR; [1]): 270 nM
- GI50 (TK-10; Homo sapiens, TK-10, five dose 0.01–100 μM): 650 nM
- Growth Percent (TK-10; TK-10, 10 μM): −60.49%
- GI50 (UO-31; Homo sapiens, UO-31, five dose 0.01–100 μM): 170 nM
- Growth Percent (UO-31; UO-31, 10 μM): −100.00%
